Data from ChEMBL document CHEMBL1148098, “Neosiphoniamolide A, a novel cyclodepsipeptide, with antifungal activity from the marine sponge Neosiphonia superstes” (1995).
Converted amounts (≈) assume the structure as drawn.

Legend:
Assay type in all cases: functional
Helminthosporium = experiment: Antifungal activity against Helminthosporium gramineum assessed as inhibition of mycelium growth
Oculimacula yallundae = experiment: Antifungal activity against Pseudocercosporella herpotrichoides assessed as inhibition of mycelium growth
Botrytis cinerea = experiment: Antifungal activity against Botrytis cinerea assessed as inhibition of mycelium growth
Phytophthora cinnamomi = experiment: Antifungal activity against Phytophthora cinnamomi assessed as inhibition of mycelium growth
[1] = tested on: Globisporangium rostratum; experiment: Antifungal activity against Pythium rostratum assessed as inhibition of mycelium growth
Parastagonospora nodorum = experiment: Antifungal activity against Septoria nodorum assessed as inhibition of mycelium growth
Rhizoctonia solani = experiment: Antifungal activity against Rhizoctonia solani assessed as inhibition of mycelium growth
Pyricularia oryzae = experiment: Antifungal activity against Pyricularia oryzae assessed as inhibition of mycelium growth
Alternaria alternata = experiment: Antifungal activity against Alternaria alternata assessed as inhibition of mycelium growth
[2] = tested on: Phytophthora citrophthora; experiment: Antifungal activity against Phytophthora citrophthora assessed as inhibition of mycelium growth
Ustilago nuda = experiment: Antifungal activity against Ustilago nuda assessed as inhibition of mycelium growth
Fusarium = experiment: Antifungal activity against Fusarium roseum assessed as inhibition of mycelium growth
Phytopythium vexans = experiment: Antifungal activity against Pythium vexans assessed as inhibition of mycelium growth

Row | SMILES | IC90 (Helminthosporium) | IC90 (Oculimacula yallundae) | IC90 (Botrytis cinerea) | IC90 (Phytophthora cinnamomi) | IC90 [1] | IC90 (Parastagonospora nodorum) | IC90 (Rhizoctonia solani) | IC90 (Pyricularia oryzae) | IC90 (Alternaria alternata) | IC90 [2] | IC90 (Ustilago nuda) | IC90 (Fusarium) | IC90 (Phytopythium vexans)
1 | C/C1=C\[C@H](C)C[C@H](C)OC(=O)[C@H](C(C)C)NC(=O)[C@@H](Cc2ccc(O)c(I)c2)N(C)C(=O)CNC(=O)[C@@H](C)C1 [NEOSIPHONIAMOLIDE A] | 5 µg/mL (≈ 7.63 µM) | > 5 µg/mL | > 5 µg/mL | > 5 µg/mL | > 5 µg/mL | > 5 µg/mL | > 5 µg/mL | 5 µg/mL (≈ 7.63 µM) | > 5 µg/mL | > 5 µg/mL | > 5 µg/mL | > 5 µg/mL | > 5 µg/mL
2 | CO[C@H]1CC2=CC(=O)O[C@@H]([C@H](C)[C@@H](OC)C[C@H](OC)/C=C/[C@H](C)[C@@H](O)C[C@@H](OC)/C=C/[C@H](C)[C@@H]([C@@H](C)[C@@H](OC)[C@@H](C)CCC(=O)[C@H](C)[C@@H](C/C=C/N(C)C=O)OC)OC(=O)/C=C/C=C(/C)C1)[C@H]2O [SPHINXOLIDE B] | < 2 µg/mL | < 2 µg/mL | < 2 µg/mL | < 2 µg/mL | < 2 µg/mL | < 2 µg/mL | < 2 µg/mL | < 2 µg/mL | < 2 µg/mL | < 2 µg/mL | < 2 µg/mL | < 2 µg/mL | < 2 µg/mL
